Laboratory results taken from patent US20150111852A1, “1-Di(sec-butyl)-phosphinoyl-pentane (dapa-2-5) as a topical agent” (priority 2013, published 2015).

How the values were obtained:
[1] = system: oral cavity and pharyngeal surfaces; experiment: Sensory activity of ODT-A on volunteers; format: in vivo, human; conditions: 6 to 8 trials per compound
Description: ODT-A was prepared by dissolving the DAPA compound in absolute ethanol, adding a 80% mannitol-20% maltitol mixture of equal weight and then adding an equal volume of distilled water. The mixture was the stirred with a glass rod, and dispensed onto a piece of wax or parchment paper with a disposable plastic pipette. The viscous liquid drop formed was then dried under a heat source for at least 4 hr. The nominal dose of the API in ODT-A ranged from 1 to 3 mg/tablet. The dried tablets weighed on average 150 mg each and when on the dorsal surface of the tongue, rapidly dissolved completely in saliva and coated the oropharyngeal surface. These tablets were suitable for initial pilot studies, but were not uniform in size, were friable, especially in conditions of high ambient humidity, and were not readily amenable to further analytical evaluation.
Sensory Qualities of ODT on the Oral Cavity and Pharyngeal Surfaces The DAPA ODT of Study 2 were evaluated for sensory properties on volunteers. The ODT-A results [see table] are from 6 to 8 trials per compound in several experienced individuals familiar with sensory properties of “cooling agents”. The results of ODT-A will be discussed together with ODT-B and ODT-C.

throat = experiment: Cold water test after ODT-A (cold discomfort); format: in vivo, human; design: key: If the subject felt “normal coolness” in the throat, the value was “0”; if the water felt “excessively cold” on the throat, it was rated as “+”; if there was “aching cold/discomfort” on the throat, the ranking was “++”; conditions: ODT-A on the tongue, ice water drunk 10 min later
Description: After application of ODT-A there were sensations associated with heat abstraction of various intensity and duration. Of particular note was the sensation of “icy or painful” cold was felt with some compounds, but the effect was variable. To isolate this sensation more precisely and reduce variability, ODT-A was placed on the tongue and 10 min later the subject was instructed to drink a mouthful of water previously equilibrated with ice chips. If the subject felt “normal coolness” in the throat, the value was “0”; if the water felt “excessively cold” on the throat, it was rated as “+”; and if there was “aching cold/discomfort” on the throat, the ranking was “++”. The term “cold discomfort” was applied compounds that produced “++”, and this phenomenon could now be reliably defined and identified with the cold water test.

oropharynx = experiment: Chili-pepper sauce irritation test; format: in vivo, human; design: key: If there was no suppression of the irritant/tickling sensations of the sauce, the value was “0”; if there was some suppression, the value was “+”; if there was complete suppression, then the value was “++.”; conditions: ODT, sauce applied 30 min later; 6 to 8 trials per compound
Description: The “pain” component of inflammation includes irritation, itch, and discomfort and suppression of these endpoints is termed “anti-nociceptive”. To determine if a compound has anti-nociceptive activity, the Inventor has devised a modified capsaicin challenge method to evoke discomfort in the oropharyngx: the chili-pepper sauce irritation test. Chili-pepper sauce placed onto the posterior dorsal surface of the tongue evokes a tickling/irritant sensations in the oropharynx. The sensations associated with the chili pepper sauce are located in the back of the mouth and are clearly recognized and associated with irritation and a desire to clear the throat. In the chili-pepper sauce irritation test, the test compound is delivered using an ODT, as in Study 3, and 30 min later 0.2 to 0.25 mL of the sauce was applied onto the posterior dorsal surface of the tongue (with a syringe or a plastic stick). The chili pepper sauce used here is called Yank Sing® Chili Pepper Sauce (YS Gourmet Productions, Inc., PO Box 26189, San Francisco, Calif. 94126) and is a well-known condiment for use with dim sum (Chinese tea lunch). If there was no suppression of the irritant/tickling sensations of the sauce, the value was “0”; if there was some suppression, the value was “+”; and if there was complete suppression, then the value was “++.” For compounds that gave a ++ score, the irritative signals of the chili-pepper sauce are completely absent, yet the salty taste from the soy sauce of the condiment can still be readily tasted. A “++” result indicated suppression of the irritant effects of chili-pepper sauce. Numerical results are from 6 to 8 trials per compound.

[2] = target: T1, cloned hTRPM8 channel (encoded by the human TRPM8 gene, expressed in CHO cells) (Homo sapiens, UniProt Q7Z2W7); experiment: TRPM8 agonist FLIPR Fluo-8 calcium assay; format: cell-based; conditions: for TRPM8 Relative Potency: DAPA-1-7 = 1
T1 construct: host or cells: CHO cells, stably transfected
T1 sequence (Q7Z2W7 whole entry): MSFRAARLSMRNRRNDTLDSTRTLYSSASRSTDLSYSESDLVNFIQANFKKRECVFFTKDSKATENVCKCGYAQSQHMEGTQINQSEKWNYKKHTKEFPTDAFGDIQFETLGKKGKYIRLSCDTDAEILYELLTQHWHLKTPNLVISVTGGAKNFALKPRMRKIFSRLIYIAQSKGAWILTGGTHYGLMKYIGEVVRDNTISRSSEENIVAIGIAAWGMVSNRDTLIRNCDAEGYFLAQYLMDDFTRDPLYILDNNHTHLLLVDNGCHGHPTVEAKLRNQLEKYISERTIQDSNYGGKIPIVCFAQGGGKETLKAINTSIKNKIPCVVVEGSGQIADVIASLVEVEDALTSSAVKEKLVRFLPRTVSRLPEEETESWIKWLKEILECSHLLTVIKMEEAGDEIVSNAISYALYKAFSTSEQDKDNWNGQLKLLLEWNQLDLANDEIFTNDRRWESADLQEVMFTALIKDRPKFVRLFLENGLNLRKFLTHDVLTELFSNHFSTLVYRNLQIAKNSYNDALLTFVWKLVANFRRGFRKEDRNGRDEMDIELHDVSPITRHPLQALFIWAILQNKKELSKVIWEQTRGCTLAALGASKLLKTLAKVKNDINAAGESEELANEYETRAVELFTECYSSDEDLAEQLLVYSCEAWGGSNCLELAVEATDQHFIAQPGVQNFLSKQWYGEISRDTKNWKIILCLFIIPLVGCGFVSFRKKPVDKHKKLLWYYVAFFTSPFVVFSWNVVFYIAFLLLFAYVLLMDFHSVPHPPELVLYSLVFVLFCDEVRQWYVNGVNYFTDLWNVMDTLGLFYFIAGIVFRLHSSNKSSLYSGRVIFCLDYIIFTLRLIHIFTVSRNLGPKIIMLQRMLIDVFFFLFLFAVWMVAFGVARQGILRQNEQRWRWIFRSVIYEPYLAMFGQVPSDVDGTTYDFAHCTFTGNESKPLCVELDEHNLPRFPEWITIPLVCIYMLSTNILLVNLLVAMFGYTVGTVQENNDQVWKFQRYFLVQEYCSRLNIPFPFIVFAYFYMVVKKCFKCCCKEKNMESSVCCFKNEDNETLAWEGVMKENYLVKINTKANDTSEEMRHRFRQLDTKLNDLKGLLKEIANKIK
Description: The in vitro effects of test compounds were evaluated on cloned hTRPM8 channel (encoded by the human TRPM8 gene, expressed in CHO cells) using a Fluo-8 calcium kit and a Fluorescence Imaging Plate Reader (FLIPR^TETRA™) instrument.
Test compounds and positive control solutions were prepared by diluting stock solutions in a HEPES-buffered physiological saline (HBPS) solution. The test compound and control formulations were loaded in polypropylene or glass-lined 384-well plates, and placed into the FLIPR instrument (Molecular Devices Corporation, Union City, Calif., USA). The test compounds were evaluated at 4 or 8 concentrations with n=4 replicates per determination. […] The test cells were Chinese Hamster Ovary (CHO) cells stably transfected with human TRPM8 cDNAs.
For the FLIPR^TETRA™ assay, cells were plated in 384-well black wall, flat clear-bottom microtiter plates (Type: BD Biocoat Poly-D-Lysine Multiwell Cell Culture Plate) at approximately 30,000 cells per well. Cells were incubated at 37° C. overnight to reach a near confluent monolayer appropriate for use in a fluorescence assay. The test procedure was to remove the growth media and to add 40 μL of HBPS containing Fluo-8 for 30 min at 37° C. 10 μL of test compound, vehicle, or control solutions in HBPS were added to each well and read for 4 min.
Concentration-response data were analyzed via the FLIPR Control software that is supplied with the FLIPR System (MDS-AT) and fitted to a Hill equation of the following form: […]
where: “Base” is the response at low concentrations of test compound; “Max” is the maximum response at high concentrations; “xhalf” is the EC50, the concentration of test compound producing half-maximal activation; and “rate” is the Hill coefficient. Nonlinear least squares fits were made assuming a simple one-to-one binding model.

CCCCCCCCP(=O)(C(C)CC)C(C)CC (stereo not drawn) [DAPA-2-8, 1-Di(sec-butyl) phosphinoyl-octane] was tested, and the “Duration” value [1] was 27 min, the “Onset” value [1] was 1.2 min and the “Sensory Quality” value [1] was “cool”. For the same compound, the “Cold Discomfort” value (throat) was “+”, the Chili test (oropharynx) was “+” and the “Relative Potency to L-menthol” value [2] was 2.9. The “TRPM8 Relative Potency” value [2] was 0.71.
CCCCCCCP(=O)(C(C)CC)C(C)CC (stereo not drawn) [DAPA-2-7, 1-Di(sec-butyl) phosphinoyl-heptane] was tested, and the “Duration” value [1] was 21 min, the “Onset” value [1] was 0.7 min and the “Sensory Quality” value [1] was “cool/cold”. The “Cold Discomfort” value (throat) was “++”, the Chili test (oropharynx) was “++” and the “Relative Potency to L-menthol” value [2] was 3.4. For the same compound, the “TRPM8 Relative Potency” value [2] was 0.64.
CCCCCP(=O)(C(C)CC)C(C)CC (stereo not drawn) [DAPA-2-5, 1-Di(sec-butyl)-phosphinoyl-pentane] was tested, and the “Duration” value [1] was 12 min, the “Onset” value [1] was 0.1 min and the “Sensory Quality” value [1] was “dynamic cool”. For the same compound, the “Cold Discomfort” value (throat) was 0, the Chili test (oropharynx) was “++” and the “Relative Potency to L-menthol” value [2] was 2.2. For the same compound, the “rank in TRPM8 potency among the 21 compounds tested” value [2] was 12 and the “TRPM8 Relative Potency” value [2] was 0.41.
For CCCCCCP(=O)(C(C)C)C(C)C [DAPA-1-6, 1-Di(isopropyl)-phosphinoyl-hexane], the “Duration” value [1] was 16 min, the “Onset” value [1] was 0.6 min and the “Sensory Quality” value [1] was “cool/cold”. For the same compound, the “Cold Discomfort” value (throat) was “++”, the Chili test (oropharynx) was “++” and the “Relative Potency to L-menthol” value [2] was 1.6.
In the case of CCCCCCCP(=O)(C(C)C)C(C)C [DAPA-1-7, 1-Di(isopropyl)-phosphinoyl-heptane], the “Duration” value [1] is reported as 16 min, the “Onset” value [1] is reported as 0.6 min and the “Sensory Quality” value [1] is reported as “cool/cold”. The “Cold Discomfort” value (throat) was “+”, the Chili test (oropharynx) was “++” and the “Relative Potency to L-menthol” value [2] was 5.4. For the same compound, the “TRPM8 Relative Potency” value [2] was 1.
In the case of CCCCCCP(=O)(C(C)CC)C(C)CC (stereo not drawn) [DAPA-2-6, 1-Di(sec-butyl) phosphinoyl-hexane], the “Duration” value [1] is reported as 18 min, the “Onset” value [1] is reported as 0.7 min and the “Sensory Quality” value [1] is reported as “cool/cold”. For the same compound, the “Cold Discomfort” value (throat) was “++”, the Chili test (oropharynx) was “++” and the “Relative Potency to L-menthol” value [2] was 4.7. The “TRPM8 Relative Potency” value [2] was 0.87.
